Experimental data as given in EP4703354A1, “COMPOUND AS CCR6 ANTAGONIST, AND PHARMACEUTICAL COMPOSITION AND USE THEREOF” (Wuhan Createrna Science and Technology Co.,Ltd., priority 2023, dated 2024).
pIC50: −log10 of the molar value.

Tests used:
[1] = in vitro liver microsome metabolic stability, rat; type: in vitro ADME; settings: Rat liver microsomes, 37°C
Experimental: (§1) Preparation of working solutions for test compounds and standards: An appropriate amount of the compound was accurately weighed and dissolved in a corresponding volume of suitable solvent to prepare 1 mM stock solutions of the test compounds and standards. The stock solutions were then diluted with appropriate solvent to obtain 100 µM working solutions of the test compounds, ensuring that the DMSO content in the working solutions remained below 10%.
(§2) The internal standard compound testosterone (or tolbutamide) and its corresponding solvent, internal standard concentration (200 ng/mL), were selected based on the properties of the test compound.
(§3) • Solution A: 0.1 mol/L K2HPO4 (2.28 g K2HPO4·3H2O was dissolved in 100 mL of double-distilled water); • Solution B: 0.1 mol/L KH2PO4 (1.36 g KH2PO4 was dissolved in 100 mL of double-distilled water); • 80.2 mL of Solution A and 19.8 mL of Solution B were mixed thoroughly, and the pH was adjusted to 7.4.
(§4) 37.5 mg of glycine was weighed, dissolved in 100 mL of ultrapure water, and adjusted to pH 8.0 with NaOH.
(§5) 1.25 mg of glucose-6-phosphate dehydrogenase (400 U/mg) was weighed (the specific amount weighed was calculated based on the activity of the purchased glucose-6-phosphate dehydrogenase), dissolved in 1 mL of glycine buffer to a concentration of 500 U/mL, aliquoted into 20 µL per tube, and stored at -20°C for future use.
(§6) 7.83 mg of NADP, 0.06 mL of D-glucose-6-phosphate (260 mg/mL), and 10.17 mg of MgCl2·6H2O were precisely weighed.
(§7) The mixture was dissolved in 1 mL of pure water. The cofactor ratio composition: NADP 10 mM, D-glucose-6-phosphate 60 mM, MgCl2·6H2O 50 mM.
(§8) The reaction system (taking a 500 µL system as an example) was composed of the following solution ratios: 416.5 µL phosphate buffer, 5 µL compound working solution, 25 µL liver microsomes, 3.5 µL glucose-6-phosphate dehydrogenase, and 50 µL cofactor solution. The total incubation volume could be adjusted according to experimental requirements.
(§9) 416.5 µL of phosphate buffer was taken, 25 µL of liver microsomes, 3.5 µL of glucose-6-phosphate dehydrogenase, and 50 µL of cofactor solution were added, vortexed twice to mix, and preincubated in a 37°C water bath for 5 minutes. Then, 5 µL of the test compound working solution was added, vortexed twice to mix, each time for 2-3 seconds, and placed in a 37°C water bath to initiate the reaction, with two parallel samples set. At 0.5 min, 1 min, 2 min, 5 min, 15 min, and 30 min after the reaction, 50 µL of the mixture was taken and added to centrifuge tubes containing 200 µL of 0°C pre-cooled internal standard working solution to terminate the reaction, vortexed for 1 minute to mix, and centrifuged at 13,000 rpm for 10 minutes in a 4°C pre-cooled high-speed centrifuge. The supernatant was collected for analysis. After the compound was added and vortex-mixed, 50 µL of the mixture was rapidly transferred to a centrifuge tube containing 200 µL of a pre-cooled (0°C) internal standard working solution to terminate the reaction, vortex-mixed for 1 minute, and used as the relative zero-point sample (relative to the standard group). The sample was then placed into a 37°C water bath to initiate the reaction, and timing was started.
(§10) The sample analysis of the test compound was performed using the liquid chromatography-tandem mass spectrometry (LCMS/MS) method. The semi-quantitative determination was performed using the ratio of the analyte peak area to the internal standard peak area. The retention times of the analyte and internal standard, chromatogram acquisition, and chromatogram integration were processed using Analyst software.
(§11) The in vitro elimination rate constant k of the test compound and the control compound was determined by converting the ratio of the peak area of the test compound to the internal standard into the remaining rate, and T1/2 was then calculated according to the following formula. T1/2 = (Ln2)/(k) = (0.693)/(k) [formula] Table 3. […]

[2] = in vitro liver microsome metabolic stability, human; type: in vitro ADME; settings: Human liver microsomes, 37°C
Experimental: as §1, §2, §3, §4, §5, §6, §7, §8, §9, §10, §11

[3] = in vitro liver microsome metabolic stability, beagle dog; type: in vitro ADME; settings: Beagle dog liver microsomes, 37°C
Experimental: as §1, §2, §3, §4, §5, §6, §7, §8, §9, §10, §11

human CCR6 = biological target: T1, human CCR6 (Homo sapiens, UniProt P51684); experiment: human CCR6 calcium flux activity (FLIPR, HEK293 cells stably expressing human CCR6, CCL20 stimulation); type: cell-based; settings: HEK293 cells stably expressing human CCR6, EC80 human MIP-3 alpha/CCL20; read-out: CCR6 inhibitory activity, IC50
T1 construct: expressed in transfected cells; host or cells: HEK293
T1 sequence (P51684 1-374): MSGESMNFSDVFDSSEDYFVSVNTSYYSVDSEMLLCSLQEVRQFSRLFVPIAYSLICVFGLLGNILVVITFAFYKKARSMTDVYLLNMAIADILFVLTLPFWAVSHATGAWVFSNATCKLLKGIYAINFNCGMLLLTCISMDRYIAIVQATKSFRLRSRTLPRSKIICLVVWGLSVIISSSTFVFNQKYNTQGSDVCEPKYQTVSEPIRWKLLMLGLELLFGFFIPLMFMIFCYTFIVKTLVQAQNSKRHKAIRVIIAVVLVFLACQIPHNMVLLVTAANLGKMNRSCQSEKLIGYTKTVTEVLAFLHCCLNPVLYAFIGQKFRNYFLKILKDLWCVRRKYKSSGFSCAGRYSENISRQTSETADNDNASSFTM
Experimental: The activity of the compounds was evaluated using HEK293 cells stably expressing human CCR6 via the FLIPR platform. A 384-well black cell culture plate (Greiner, 781946) was used, with a seeding density of 20,000 cells/well, and incubated overnight at 37°C in a 5% CO2 incubator. The culture medium in the cell plate wells was removed, and 20 µL of Fluo-4 Direct™ Calcium Assay Buffer (Invitrogen, F10471, Component C), 20 µL of 2× Fluo-4 Direct™ Calcium Assay Reagent (Invitrogen, F10471, Component A) working solution, and 10 µL of 6× test compound working solution were sequentially added to each well. The cell plate was incubated in a 37 °C, 5% CO2 incubator for 50 min, followed by a 10 min incubation at room temperature. Additionally, a 6×EC80 human MIP-3 alpha/CCL20 (MCE, HY-P7262) working solution was prepared. After the incubation was completed, 10 µL/well of the 6×EC80 human MIP-3 alpha/CCL20 working solution was transferred to the cell plate using a FLIPR instrument, and the fluorescence signal changes at an excitation wavelength of 494 nm and an emission wavelength of 516 nm were recorded over 90 seconds. The difference between the maximum fluorescence signal (RFUMax) and the minimum fluorescence signal (RFUMin) was used as the output signal. The compound inhibition rate and the log value of the compound concentration were calculated, and a four-parameter fitting analysis was performed using GraphPad Prism 8 software to obtain the IC50 value of the test compound.

[4] = in vivo pharmacokinetic study in SD rats; settings: male, rat, plasma; for AUC(0-t) / Cmax / half-life: 1 mg/kg
Experimental: 2.2.1 Rats: SD rats, SPF grade, 6 rats per compound, male, body weight range 180-200 g.
2.2.2 Housing conditions: The animals were housed in an SPF-grade animal facility with free access to food and water, three per cage, under a 12/12-hour light/dark cycle (7:00 am/7:00 pm), at a temperature of 23 ± 3°C.
2.2.3 Drug preparation: The compound was precisely weighed, mixed with the required volume of 1% Tween 80, vortexed for 2 min, and then sonicated for 5 min until no visible particles remained. The mixture was subsequently stirred on a magnetic stirrer for 20 min, and the middle layer of the drug solution was collected for administration. For the IV group, the compound was accurately weighed, dissolved in the required volume of 50% PEG400, sonicated for 10 min, and vortexed until clear before administration.
The rats were randomly divided into 2 groups based on body weight, with 3 rats per compound per group. Group 1 was administered a single oral gavage dose (fasted), and Group 2 was administered a single tail vein bolus injection. Blood collection time points: for the po group, blood was collected at 0.167 h, 0.5 h, 1 h, 2 h, 3 h, 4 h, 6 h, and 8 h; for the iv group, blood was collected at 0.033 h, 0.167 h, 0.5 h, 1 h, 2 h, 4 h, 6 h, and 8 h.
After administration to the rats, blood was collected from the orbital venous plexus according to the sampling time points. Approximately 0.2-0.3 mL of blood was collected at each time point into anticoagulant EP tubes (containing 4 µL of EDTA-K2, 375 mg/mL, dried at 50°C). The tubes were slowly inverted up and down three times and stored in an ice box (for no more than 30 minutes). Centrifugation was performed at 4°C at 3000 × g for 10 minutes, and the supernatant was transferred to labeled EP tubes for bioanalytical testing. If testing could not be performed on the same day, the samples were stored at -80°C until analysis (care was taken to avoid multiple freeze/thaw cycles).
The data were analyzed using WinNonlin via a non-compartmental model to obtain PK parameters (Cmax, AUC0-last, AUCinf, T1/2, etc., selected based on different routes of administration). For specific data, please refer to Table 2. Table 2. PK experimental results of compounds in SD rats

Compound	Liver microsome T1-2 (min) Rat [1] [min]	Liver microsome T1-2 (min) Human [2] [min]	Liver microsome T1-2 (min) Beagle dog [3] [min]	also measured
CN(CC(F)(F)F)C(=O)c1nccc(Nc2c(N[C@@H](c3ccc(F)cn3)C3(C)CCCC3)c(=O)c2=O)c1O [compound 070, (R)-4-((2-(((5-fluoropyridin-2-yl)(1-methylcyclopentyl)methyl)amino)-3,4-dioxocyclobut-1-en-1-yl)amino)-3-hydroxy-N-methyl-N-(2,2,2-trifluoroethyl)picolinamide]	34.22	201.75	37.22	–
CN(C)C(=O)c1nccc(Nc2c(N[C@@H](c3nc(C(F)F)ccc3F)C3(C)CC(F)(F)CO3)c(=O)c2=O)c1O (stereo partly drawn) [compound 097, 4-((2-(((1S)-(4,4-difluoro-2-methyltetrahydrofuran-2-yl)(6-(difluoromethyl)-3-fluoropyridin-2-yl)methyl)amino)-3,4-dioxocyclobut-1-en-1-yl)amino)-3-hydroxy-N,N-dimethylpicolinamide]	230.78	724.74	209.62	–
CN(CC(F)F)C(=O)c1nccc(Nc2c(N[C@@H](c3ccc(F)cn3)C3(C)CCCC3)c(=O)c2=O)c1O [compound 071, (R)-N-(2,2-difluoroethyl)-4-((2-(((5-fluoropyridin-2-yl)(1-methylcyclopentyl)methyl)amino)-3,4-dioxocyclobut-1-en-1-yl)amino)-3-hydroxy-N-methylpicolinamide]	52.81	262.47	54.52	–
Cc1nccnc1[C@H](Nc1c(Nc2ccc(F)c(C(=O)N(C)C(C)C)c2O)c(=O)c1=O)C1(C)CCCC1 [compound 090, (R)-6-fluoro-2-hydroxy-N-isopropyl-N-methyl-3-((2-(((1-methylcyclopentyl)(3-methylpyrazin-2-yl)methyl)amino)-3,4-dioxocyclobut-1-en-1-yl)amino)benzamide]	50.16	209.60	355.30	–
CC#CC(Nc1c(Nc2ccnc(C(=O)N(C)C)c2O)c(=O)c1=O)C1(C)CC(F)(F)CO1 (centres unmarked) [compound 112, 4-((2-((1-(4,4-difluoro-2-methyltetrahydrofuran-2-yl)but-2-yn-1-yl)amino)-3,4-dioxocyclobut-1-en-1-yl)amino)-3-hydroxy-N,N-dimethylpicolinamide]	560.45	–	–	pIC50 (human CCR6): 6.78
Cc1nccnc1[C@H](Nc1c(Nc2ccc(F)c(C(=O)N(C)C)c2O)c(=O)c1=O)C1(C)CCCC1 [compound 130, (R)-6-fluoro-2-hydroxy-N,N-dimethyl-3-((2-(((1-methylcyclopentyl)(3-methylpyrazin-2-yl)methyl)amino)-3,4-dioxocyclobut-1-en-1-yl)amino)benzamide]	109.49	–	2270.89	bioavailability ([4]; 1 mg/kg PO vs 1 mg/kg IV, read-out: Oral bioavailability F (%)): 24%; AUC(0-t) ([4]; IV): 752 ng·h/mL; Cmax ([4]; IV): 5530 ng/mL; half-life ([4]; IV): 0.22 h; AUC(0-t) ([4]; PO): 181 ng·h/mL; Cmax ([4]; PO): 158 ng/mL; half-life ([4]; PO): 2.79 h

Continued, in another order:

Liver microsome T1-2 (min) Rat [1] [min]	Liver microsome T1-2 (min) Human [2] [min]	Liver microsome T1-2 (min) Beagle dog [3] [min]	Compound	also measured
78.14	310.89	160.31	Cc1cccnc1[C@H](Nc1c(Nc2ccnc(C(=O)N(C)C)c2O)c(=O)c1=O)[C@@]1(C)CC(F)(F)CO1 (single isomer, unassigned) [128A]	–
571.31	369.68	567.51	Cc1cccnc1C(Nc1c(Nc2ccc(F)c(C(=O)N(C)C)c2O)c(=O)c1=O)[C@@]1(C)CC(F)(F)CO1 (stereo partly drawn) [087B, 3-((2-((((R)-4,4-difluoro-2-methyltetrahydrofuran-2-yl)(3-methylpyridin-2-yl)methyl)amino)-3,4-dioxocyclobut-1-en-1-yl)amino)-6-fluoro-2-hydroxy-N,N-dimethylbenzamide]	–
